Measurements as given in the supplement of paper PMC13380429.
Counter-ions that a name gives are not always drawn.

Assays:
Conditions in all cases: 72 h
Caco-2 [1] = assay: cell viability relative to DMSO; higher = less toxic
Calu-3 [2] = assay: as above
HepG2 [3] = assay: as above
U2OS [4] = assay: as above
Vero E6 [5] = assay: as above
Caco-2 [6] = assay: relative viability EC50 (midpoint between 100% and the lowest measured viability); higher = less toxic
Calu-3 [7] = assay: as above
HepG2 [8] = assay: as above
U2OS [9] = assay: as above
Vero E6 [10] = assay: as above
Caco-2 [11] = assay: drug sensitivity score (DSS) for viability; higher = more toxic; extreme values may be limits of the assay
Calu-3 [12] = assay: as above
HepG2 [13] = assay: as above
U2OS [14] = assay: as above
Vero E6 [15] = assay: as above

| SMILES | cell viability (Caco-2 [1]; 1 nM) [%] | cell viability (Caco-2 [1]; 10 nM) [%] | cell viability (Caco-2 [1]; 100 nM) [%] | cell viability (Caco-2 [1]; 1000 nM) [%] | cell viability (Caco-2 [1]; 10000 nM) [%] | cell viability (Calu-3 [2]; 1 nM) [%] | cell viability (Calu-3 [2]; 10 nM) [%] | cell viability (Calu-3 [2]; 100 nM) [%] | cell viability (Calu-3 [2]; 1000 nM) [%] | cell viability (Calu-3 [2]; 10000 nM) [%] | cell viability (HepG2 [3]; 1 nM) [%] | cell viability (HepG2 [3]; 10 nM) [%] | cell viability (HepG2 [3]; 100 nM) [%] | cell viability (HepG2 [3]; 1000 nM) [%] | cell viability (HepG2 [3]; 10000 nM) [%] | cell viability (U2OS [4]; 1 nM) [%] | cell viability (U2OS [4]; 10 nM) [%] | cell viability (U2OS [4]; 100 nM) [%] | cell viability (U2OS [4]; 1000 nM) [%] | cell viability (U2OS [4]; 10000 nM) [%] | cell viability (Vero E6 [5]; 1 nM) [%] | cell viability (Vero E6 [5]; 10 nM) [%] | cell viability (Vero E6 [5]; 100 nM) [%] | cell viability (Vero E6 [5]; 1000 nM) [%] | cell viability (Vero E6 [5]; 10000 nM) [%] | relative viability EC50 (Caco-2 [6]) [µM] | relative viability EC50 (Calu-3 [7]) [µM] | relative viability EC50 (HepG2 [8]) [µM] | relative viability EC50 (U2OS [9]) [µM] | relative viability EC50 (Vero E6 [10]) [µM] | drug sensitivity score (Caco-2 [11]) | drug sensitivity score (Calu-3 [12]) | drug sensitivity score (HepG2 [13]) | drug sensitivity score (U2OS [14]) | drug sensitivity score (Vero E6 [15]) |
| --- | --- | --- | --- | --- | --- | --- | --- | --- | --- | --- | --- | --- | --- | --- | --- | --- | --- | --- | --- | --- | --- | --- | --- | --- | --- | --- | --- | --- | --- | --- | --- | --- | --- | --- | --- |
| O=C(Nc1cc2cc[nH]c2cn1)c1ccccc1 [OAC1] | 102 | 97 | 100 | 85.6 | 77.3 | 99.8 | 96.8 | 103 | 102 | 89.3 | 104 | 116 | 101 | 113 | 80.8 | 105 | 95.8 | 101 | 93.3 | 83.3 | 97.1 | 99.7 | 94.3 | 99.1 | 86.2 | > 10 | > 10 | > 10 | > 10 | > 10 | 2.3 | 0 | 0.3 | 1 | 0.2 |
| COc1cccc2cc(-c3nc([C@H]4CC[C@H](C(=O)O)CC4)n4ncnc(N)c34)[nH]c12 [OSI-027] | 98.5 | 100 | 86.4 | 56.7 | 26.3 | 92.4 | 100 | 70.6 | 33.7 | 26.3 | 112 | 106 | 102 | 48.8 | 28.4 | 92.5 | 100 | 92.3 | 57.2 | 17.2 | 102 | 103 | 98.3 | 80.1 | 39.7 | 0.603 | 0.145 | 0.693 | 0.903 | 1.33 | 9.9 | 15.9 | 9.9 | 9.7 | 6.2 |
| CC(C)n1nc(-c2cc3cc(O)ccc3[nH]2)c2c(N)ncnc21 [PP242] | 104 | 88.9 | 80.4 | 41.4 | 31.3 | 107 | 94.2 | 79.6 | 26.5 | 20.1 | 100 | 121 | 90.2 | 50 | 19.8 | 99.2 | 99 | 96 | 56.1 | 16.4 | 107 | 105 | 96.2 | 67.9 | 15.9 | 0.208 | 0.203 | 0.652 | 0.927 | 1.26 | 13.1 | 16 | 10.8 | 9.8 | 8.7 |
| COc1ccccc1-c1c[nH]c2ncc(-c3cncc(C(=O)N(C)C)c3)cc12 [PPY-A] | 88.4 | 119 | 102 | 106 | 102 | 108 | 96.4 | 95.3 | 115 | 126 | 120 | 96.9 | 92.1 | 114 | 99.7 | 95.4 | 112 | 101 | 101 | 96.4 | 95.4 | 100 | 100 | 101 | 112 | > 10 | > 10 | > 10 | > 10 | > 10 | 0 | 0 | 0 | 0 | 0 |
| C=CC[N+]1([C@H]2C[C@H]3[C@@H]4CC[C@H]5C[C@H](O)[C@@H](N6CCOCC6)C[C@]5(C)[C@H]4CC[C@]3(C)[C@H]2OC(C)=O)CCCC1 [ROCURONIUM BROMIDE] | 104 | 103 | 107 | 132 | 79.8 | 98.1 | 105 | 107 | 94.9 | 105 | 97.7 | 113 | 108 | 111 | 108 | 106 | 99.3 | 103 | 103 | 108 | 91 | 95.1 | 89.5 | 88.5 | 95.6 | > 10 | > 10 | > 10 | > 10 | > 10 | 0.2 | 0 | 0 | 0 | 0 |
| N[C@@H](CSS(=O)(=O)O)C(=O)O [S-sulfo-L-cysteine] | 97.9 | 105 | 88.1 | 100 | 94.2 | 97.7 | 92.6 | 94.4 | 95.8 | 95.2 | 108 | 101 | 103 | 94.8 | 94.5 | 94.4 | 102 | 95 | 102 | 98.4 | 98.3 | 96.2 | 103 | 97.5 | 102 | > 10 | > 10 | > 10 | > 10 | > 10 | 0 | 0 | 0 | 0 | 0 |
| COCCN1CCC(C(=O)NO)(S(=O)(=O)c2ccc(Oc3ccc(OC(F)(F)F)cc3)cc2)CC1 [SD-2590] | 97.8 | 103 | 95.9 | 98.8 | 107 | 93.9 | 96.8 | 96.9 | 98.8 | 88.1 | 95.9 | 93.8 | 93.9 | 89 | 91.6 | 98.2 | 103 | 92.2 | 100 | 98.8 | 97.6 | 94 | 98.7 | 92.2 | 103 | > 10 | > 10 | > 10 | > 10 | > 10 | 0 | 0.1 | 0 | 0 | 0 |
| CC(C)(C)c1ccc(S(=O)(=O)NCc2ccc(C(=O)Nc3cccnc3)cc2)cc1 [STF-31] | 96.7 | 99.3 | 96.2 | 89.6 | 5.5 | 90.7 | 96.3 | 100 | 106 | 7.7 | 105 | 103 | 106 | 76.5 | 16.9 | 103 | 98.8 | 106 | 28.8 | 0.2 | 103 | 102 | 106 | 101 | 2.9 | 2.26 | 3.48 | 1.45 | 0.698 | 3.2 | 7 | 4.7 | 8.1 | 13.6 | 5.4 |
| CN[C@@H]1[C@H](O[C@H]2[C@H](O[C@H]3[C@H](O)[C@@H](O)[C@H](N=C(N)N)[C@@H](O)[C@@H]3N=C(N)N)O[C@@H](C)[C@]2(O)C=O)O[C@@H](CO)[C@H](O)[C@H]1O [STREPTOMYCIN SULFATE [5mM; 10% aq DMSO + 5mM ethanolamine]] | 95 | 106 | 88.5 | 95.7 | 98.1 | 87.6 | 102 | 86.6 | 91.9 | 91.7 | 101 | 105 | 102 | 101 | 98.2 | 98.7 | 100 | 94.5 | 99.5 | 95.7 | 97.8 | 98.5 | 99.9 | 95.2 | 98.3 | > 10 | > 10 | > 10 | > 10 | > 10 | 0 | 0 | 0 | 0 | 0 |
| O=C1CC(=O)c2c(Cl)c(Cl)c(Cl)c(Cl)c21 [TCID] | 120 | 102 | 98.3 | 91.1 | 95.6 | 88 | 88.5 | 91.7 | 77.9 | 89.2 | 99.9 | 101 | 104 | 107 | 107 | 101 | 103 | 106 | 104 | 94.6 | 101 | 99.1 | 97 | 101 | 100 | > 10 | > 10 | > 10 | > 10 | > 10 | 0 | 0 | 0 | 0 | 0 |
| COc1cc2c(cc1OC)CN(C(=O)[C@@H](NCc1ccncc1)C(C)(C)C)CC2 [TCS-OX2-29] | 96.9 | 95.2 | 97.3 | 99.2 | 91.1 | 114 | 88.9 | 103 | 98.6 | 91.7 | 101 | 93.1 | 103 | 94.3 | 102 | 94.6 | 100 | 92.6 | 98.3 | 99.7 | 100 | 91.9 | 96.8 | 93.9 | 96.9 | > 10 | > 10 | > 10 | > 10 | > 10 | 0 | 0 | 0 | 0 | 0 |
| O=C(NC(=O)c1c(F)cccc1Cl)NC1c2ccccc2-c2ccccc21 [TMN-355] | 93.1 | 93.7 | 86.8 | 92.1 | 104 | 88 | 93.9 | 108 | 91.7 | 97.6 | 97.4 | 103 | 101 | 109 | 108 | 97.4 | 99.9 | 96.9 | 94.2 | 102 | 100 | 91.9 | 104 | 98.4 | 106 | > 10 | > 10 | > 10 | > 10 | > 10 | 0 | 0 | 0 | 0 | 0 |
| CC[C@@H](c1cccc(O)c1)[C@@H](C)CN(C)C [Tapentadol (hydrochloride)] | 93.5 | 99.6 | 96.3 | 91.7 | 107 | 89 | 80.2 | 102 | 90.9 | 92.5 | 97 | 90.6 | 95.2 | 101 | 99.9 | 97 | 99.7 | 102 | 93.9 | 97.8 | 103 | 108 | 97.3 | 97.1 | 96.3 | > 10 | > 10 | > 10 | > 10 | > 10 | 0 | 0.1 | 0 | 0 | 0 |
| N[C@@H](Cn1ccc(=O)n(Cc2ccccc2C(=O)O)c1=O)C(=O)O [UBP-302] | 91.6 | 93 | 91.2 | 89.6 | 98.1 | 105 | 94.8 | 107 | 115 | 107 | 103 | 101 | 97.9 | 101 | 104 | 99 | 95.5 | 97.6 | 92.7 | 98.7 | 101 | 98.6 | 103 | 101 | 102 | > 10 | > 10 | > 10 | > 10 | > 10 | 0 | 0 | 0 | 0 | 0 |
